Several values for one entry are separate records, joined by “and”; a condition that tells them apart may be missing. Equal entries are not always repeated. Ends that are not written are not given here.
Assays:
Type in all cases: in vivo, human
ICAM1 = test: Example 2: change in cytokine level in ocular fluid samples, ICAM1
Experimental: (§1) The primary objective was to determine the Maximum Tolerated Dose (MTD) of a peptide an amino acid sequence […] and the structure of Formula III (ONL1204) and select doses for further clinical studies. During the study, ocular fluid samples were also collected at the time of study drug injection and at the time of vitrectomy. These samples were used for pharmacokinetic and pharmacodynamic analyses.
(§2) Patients were enrolled in ascending dose groups. […] Safety visits were conducted one day post-injection and as deemed necessary by the examining Investigator (at least 1 visit every 3 days) until Visit 3. At Visit 3 (3+ days post-injection, in accordance with standard of care) patients underwent surgical repair of their retinal detachment with vitrectomy (with or without scleral buckling) and gas or oil tamponade. At the time of surgery, an undiluted vitreous sample was collected for pharmacokinetic and pharmacodynamics analyses, and an aqueous sample was collected for pharmacodynamic analysis. Additional safety visits were targeted for and generally conducted one day post-surgery, 7 days (±3 days) post-surgery, 14 (+4 days) days post-surgery, and Weeks 6, 9, 12 (±7 days each), and Week 24 (+14 days; study exit).

[1] = test system: patients having macular degeneration characterized by geographic atrophy (GA); test: Example I: BCVA in GA patients after single intravitreal injection
[2] = test system: patients with retinal detachment; test: Example 2: BCVA in retinal detachment patients, intravitreal injection followed by surgical repair; parameters: key to BCVA Snellen study eye: (HM) = hand motion; (CF) = counting fingers; settings: for summary statistics for all patients, mean: doses 25 to 200 ug, baseline mean 1.86
Experimental: as §1, §2
Therefore, a volume of 0.05 or 0.1 mL was injected into the study eye. Patient participation was approximately 24 weeks (6 months): a single injection treatment and 24 weeks of follow-up.

MCP1 = test: Example 2: change in cytokine level in ocular fluid samples, MCP1
Experimental: as §1, §2

IL1RA = test: Example 2: change in cytokine level in ocular fluid samples, IL1RA
Experimental: as §1, §2

IL18 = test: Example 2: change in cytokine level in ocular fluid samples, IL18
Experimental: as §1, §2

[3] = test system: patients with retinal detachment; test: Example 2: safety, adverse event reporting
Experimental: as §1, §2
The following doses were evaluated: 25 microgram (ug) and 50 ug provided in vials with concentrations of 0.5 mg/mL and/or 2 mg/mL of Formula III. Therefore, a volume of 0.05 or 0.1 mL was injected into the study eye. Patient participation was approximately 24 weeks (6 months): a single injection treatment and 24 weeks of follow-up.
Planned determinations of dose limiting toxicity included consideration of the following events: • 1.

[4] = dose 25 ug (Table 1), individual patients
[5] = dose 50 ug (Table 1), individual patients
[6] = dose 100 ug (Table 1), individual patients
[7] = dose 200 ug (Table 1), individual patient

Substance: HHIYLGAVNYIY-NH2 [ONL1204]
- Percent Change (%) from time of administering ONL1204 to surgery, ICAM1 (ICAM1; [4]): −82.4% and −42.7% and −86.2%
- Percent Change (%) from time of administering ONL1204 to surgery, ICAM1 (ICAM1; [5]): 64.0% and −100% and 0%
- Percent Change (%) from time of administering ONL1204 to surgery, ICAM1 (ICAM1; [6]): −43.9% and 24.9% and 22.7%
- Percent Change (%) from time of administering ONL1204 to surgery, ICAM1 (ICAM1; [7]): 0%
- change in best corrected visual acuity (BCVA) ([1]; compared to baseline BCVA, FIG. 1, 1 to 24 weeks post treatment): improvement in visual acuity was generally observed
- visual outcomes (e.g., visual acuity) ([1]; doses comprising 25 ug and 50 ug, single intravitreal injection): showed an improvement in visual outcomes
- summary statistics for all patients, mean ([2]; Week 6, n 14): 0.65
- summary statistics for all patients, mean ([2]; Week 9, n 13): 0.78
- summary statistics for all patients, mean ([2]; Week 24, n 13): 0.56
- visual outcomes, all patients receiving ONL1204 ([2]; also with greater than 10 days of central vision loss, 3 to 7 days from administration to surgery, range of detachment heights and extents): improved visual outcomes were observed for all patients receiving ONL1204
- visual outcomes (e.g., visual acuity) ([2]; retinal detachment patients, doses comprising 25 ug and 50 ug, with surgery): showed an improvement in visual outcomes
- BCVA Snellen study eye ([2]; week 9, dose 100 ug, individual patients): HM
- Percent Change (%) from time of administering ONL1204 to surgery, MCP1 (MCP1; [4]): −41.4% and −6.02% and −35.9%
- Percent Change (%) from time of administering ONL1204 to surgery, MCP1 (MCP1; [5]): −3.12% and −48.4% and 11.6%
- Percent Change (%) from time of administering ONL1204 to surgery, MCP1 (MCP1; [6]): −9.5% and 78.5% and 500%
- Percent Change (%) from time of administering ONL1204 to surgery, MCP1 (MCP1; [7]): −2.4%
- change in cytokine levels (MCP 1, ICAM, IL IRA, and IL 18) from time of ONL1204 administration to surgery (MCP1; mean over patients of Table 7): mean decrease
- Percent Change (%) from time of administering ONL1204 to surgery, IL1RA (IL1RA; [4]): −51.0% and −57.4% and −99.3%
- Percent Change (%) from time of administering ONL1204 to surgery, IL1RA (IL1RA; [5]): −60.0% and −94.4% and −88.3%
- Percent Change (%) from time of administering ONL1204 to surgery, IL1RA (IL1RA; [6]): 8.5% and −46.1% and −65.2%
- Percent Change (%) from time of administering ONL1204 to surgery, IL1RA (IL1RA; [7]): −26.3%
- Percent Change (%) from time of administering ONL1204 to surgery, IL18 (IL18; [4]): −60.5% and −22.5% and −50.8%
- Percent Change (%) from time of administering ONL1204 to surgery, IL18 (IL18; [5]): 0% (2×) and −100%
- Percent Change (%) from time of administering ONL1204 to surgery, IL18 (IL18; [6]): −33.7% and 0% and 66.0%
- Percent Change (%) from time of administering ONL1204 to surgery, IL18 (IL18; [7]): 0%
- patients who experienced adverse events ([3]; 4 patients receiving 25 ug and 4 patients receiving 50 ug): 7 out of 8
- severity and relatedness of adverse events ([3]; 8 patients, 25 ug and 50 ug): Most were mild, and study procedure or surgery related
- total number of adverse events ([3]; 8 patients, 25 ug and 50 ug): 20

From patent US20240299488A1, “METHODS AND COMPOSITIONS FOR IMPROVING VISUAL FUNCTION IN OCULAR DISEASES AND DISORDERS” (ONL Therapeutics, Inc., priority 2021, published 2024)
